This is an account of results in ChEMBL document CHEMBL3045669, “Evaluation of crude toxin and metabolite produced by Helminthosporium gramineum Rabenh for the control of rice sheath blight in paddy fields” (2007).

Each structure is given as a SMILES string.

Common to all, as to assay type: functional
What all share (details): read-out: GI

Assay [1] concerns Rhizoctonia solani. As to the kind of experiment: Growth inhibition of Rhizoctonia solani AG-1 IA at 50 ug/ml after 24 hr.
Assay [2] deals with Rhizoctonia solani. As to the kind of experiment: Growth inhibition of Rhizoctonia solani AG-1 IA at 10 ug/ml after 24 hr.
The subject of assay [3] is Rhizoctonia solani. Description: Growth inhibition of Rhizoctonia solani AG-1 IA at 25 ug/ml after 24 hr.
Assay [4] has as its system Rhizoctonia solani. As to the kind of experiment: Growth inhibition of Rhizoctonia solani AG-1 IA at 1 ug/ml after 24 hr.
Assay [5] deals with Rhizoctonia solani. Description: Growth inhibition of Rhizoctonia solani AG-1 IA at 200 ug/ml after 24 hr.
In assay [6] the test system is Rhizoctonia solani. Description: Growth inhibition of Rhizoctonia solani AG-1 IA at 100 ug/ml after 24 hr.

In the case of `CC(C)=C[C@H]1C[C@H](C)[C@]2(CC[C@]3(C)C[C@H]4[C@H](C(=O)C[C@@]4(C)O)/C(C=O)=C\C[C@H]32)O1` [OPHIOBOLIN A], in assay [1], the inhibition of growth at 50 µg/mL was determined as 100%. Also, in assay [2], the inhibition of growth at 10 µg/mL turned out to be 85.9%. In assay [3], the inhibition of growth at 25 µg/mL amounted to 100%. Also, the inhibition of growth at 1 µg/mL in assay [4] was 70.2%.

As for `OCC1=C[C@H](N[C@H]2C[C@H](CO)[C@@H](O[C@@H]3O[C@H](CO)[C@@H](O)[C@H](O)[C@H]3O)[C@H](O)[C@H]2O)[C@H](O)[C@@H](O)[C@@H]1O` [VALIDAMYCIN], in assay [5], the inhibition of growth at 200 µg/mL is 45.2%. In assay [6], the inhibition of growth at 100 µg/mL was 34%. Also, the inhibition of growth at 50 µg/mL in assay [1] worked out at 22.6%. Also, the inhibition of growth at 10 µg/mL in assay [2] worked out at 5.7%. Moreover, the inhibition of growth at 25 µg/mL in assay [3] came to 17%.
